From the supplement of paper PMC10307832

Legend:
Assay in all cases: relative viability (nuclei count vs DMSO), 5 days (fraction); higher = more cells survive
NCI-H1975 = tested on: NCI-H1975
Method in brief: (§1)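 Values are medians from duplicate plates. Each reflects relative viability, defined as the nuclei count of treated wells over that of vehicle wells. Lung cancer cell lines in 1536-well plates were pin-tool dosed one day after seeding with one drug alone or with a fixed anchor-drug dose plus five library-drug doses (not always all listed) in √10 steps, then fixed, stained and imaged at 4× after 5 days.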

NCI-H322M = tested on: NCI-H322M
Method in brief: as §1

RERF-LC-KJ = tested on: RERF-LC-KJ
Method in brief: as §1

PC-3 [JPC-3] = tested on: PC-3 [JPC-3]
Method in brief: as §1

NCI-H1355 = tested on: NCI-H1355
Method in brief: as §1

NCI-H1563 = tested on: NCI-H1563
Method in brief: as §1

EKVX = tested on: EKVX
Method in brief: as §1

LK-2 = tested on: LK-2
Method in brief: as §1

CAL-12T = tested on: CAL-12T
Method in brief: as §1

H3255 = tested on: H3255
Method in brief: as §1

Work on `Cc1sc2c(c1C)C(c1ccc(Cl)cc1)=N[C@@H](CC(=O)OC(C)(C)C)c1nnc(C)n1-2` [JQ1] + C[C@@H](Oc1cc(-c2cnn(C3CCNCC3)c2)cnc1N)c1c(Cl)ccc(F)c1Cl [Crizotinib] (partner 1 µM) yielded a relative viability (NCI-H1975; first compound 0.04 µM) of 0.891, a relative viability (NCI-H1975; first compound 0.1265 µM) of 0.675 and a relative viability (NCI-H1975; first compound 0.4 µM) of 0.483. It also gave a relative viability (NCI-H1975; first compound 1.265 µM) of 0.3, a relative viability (NCI-H1975; first compound 4 µM) of 0.235 and a relative viability (NCI-H322M; first compound 0.04 µM) of 0.83. For the same compound, the relative viability (NCI-H322M; first compound 0.1265 µM) was 0.839, the relative viability (NCI-H322M; first compound 0.4 µM) was 0.856 and the relative viability (NCI-H322M; first compound 1.265 µM) was 0.533. The relative viability (NCI-H322M; first compound 4 µM) was 0.458, the relative viability (RERF-LC-KJ; first compound 0.04 µM) was 0.783 and the relative viability (RERF-LC-KJ; first compound 0.1265 µM) was 0.879. For the same compound, the relative viability (RERF-LC-KJ; first compound 0.4 µM) was 0.777, the relative viability (RERF-LC-KJ; first compound 1.265 µM) was 0.635 and the relative viability (RERF-LC-KJ; first compound 4 µM) was 0.29. It also gave a relative viability (PC-3 [JPC-3]; first compound 0.04 µM) of 1.06, a relative viability (PC-3 [JPC-3]; first compound 0.1265 µM) of 1.03 and a relative viability (PC-3 [JPC-3]; first compound 0.4 µM) of 0.96. It also gave a relative viability (PC-3 [JPC-3]; first compound 1.265 µM) of 0.851, a relative viability (PC-3 [JPC-3]; first compound 4 µM) of 0.512 and a relative viability (NCI-H1355; first compound 0.04 µM) of 1.01. The relative viability (NCI-H1355; first compound 0.1265 µM) was 0.963, the relative viability (NCI-H1355; first compound 0.4 µM) was 0.768 and the relative viability (NCI-H1355; first compound 1.265 µM) was 0.559. The relative viability (NCI-H1355; first compound 4 µM) was 0.614, the relative viability (NCI-H1563; first compound 0.04 µM) was 0.839 and the relative viability (NCI-H1563; first compound 0.1265 µM) was 0.764. It also gave a relative viability (NCI-H1563; first compound 0.4 µM) of 0.881, a relative viability (NCI-H1563; first compound 1.265 µM) of 0.631 and a relative viability (NCI-H1563; first compound 4 µM) of 0.615. It also gave a relative viability (EKVX; first compound 0.04 µM) of 0.713, a relative viability (EKVX; first compound 0.1265 µM) of 0.749 and a relative viability (EKVX; first compound 0.4 µM) of 0.938. For the same compound, the relative viability (EKVX; first compound 1.265 µM) was 0.707, the relative viability (EKVX; first compound 4 µM) was 0.489 and the relative viability (LK-2; first compound 0.04 µM) was 0.208. It also gave a relative viability (LK-2; first compound 0.1265 µM) of 0.224, a relative viability (LK-2; first compound 0.4 µM) of 0.212 and a relative viability (LK-2; first compound 1.265 µM) of 0.232. The relative viability (LK-2; first compound 4 µM) was 0.198, the relative viability (CAL-12T; first compound 0.04 µM) was 0.528 and the relative viability (CAL-12T; first compound 0.1265 µM) was 0.316. The relative viability (CAL-12T; first compound 0.4 µM) was 0.316, the relative viability (CAL-12T; first compound 1.265 µM) was 0.133 and the relative viability (CAL-12T; first compound 4 µM) was 0.103. It also gave a relative viability (H3255; first compound 0.04 µM) of 0.828, a relative viability (H3255; first compound 0.1265 µM) of 0.715 and a relative viability (H3255; first compound 0.4 µM) of 0.741. It also gave a relative viability (H3255; first compound 1.265 µM) of 0.316 and a relative viability (H3255; first compound 4 µM) of 0.221.
